Activity, Drug uptake and IC50 data for 3 compounds are collected here from ChEMBL document CHEMBL4251586, “Design, synthesis and evaluation of an anthraquinone derivative conjugated to myelin basic protein immunodominant (MBP85-99) epitope: Towards selective immunosuppression” (Eur J Med Chem, 2018).

Data set [1] has as its system Jurkat. Briefly: Induction of apoptosis in human Jurkat T cells assessed as downregulation of Bcl2 expression at 10 uM after 48 hrs by Western blot analysis. It is filed as functional. (A western blot detects proteins with antibodies after separation by electrophoresis.)
Data set [2] in a line: Drug internalization in HEK293 cells at 10 uM after 30 to 60 mins by inverted fluorescence microscopy. It is filed as ADME, cell-based. The note with it: human, hek293, 10 µM.
For data set [3], the system named is HEK293. Briefly: Cytotoxicity against HEK293 cells after 48 hrs by MTT assay. It is filed as cell-based, Homo sapiens. (In general: Tetrazolium dyes change colour on reduction, which living cells bring about.)

The structures appear in SMILES notation.

Consider `O=C(CS)NCCCCNc1ccc(O)c2c1C(=O)c1ccccc1C2=O`, for which the Activity in data set [1] came to 40%.
As to `NCCCCNc1ccc(O)c2c1C(=O)c1ccccc1C2=O.O=C(O)C(F)(F)F`, in data set [2], the Drug uptake entry was “Active”. Further, inhibition in data set [3] (Homo sapiens, HEK293, 48 h) was half-maximal at 9.4 µM (IC50). For the same compound, the Activity entry in data set [3] (human, hek293, 48 h) was “Dose-dependent effect”.
With `O=C1c2c(O)ccc(O)c2C(=O)c2c(NCCNCCO)ccc(NCCNCCO)c21` [MITOXANTRONE], the Activity in data set [1] is on record as 50%.

The IC50 is the concentration at which inhibition is half-maximal. High values mean lower potency, low ones higher potency.
